The text below walks through data of patent US20070190544A1, “Methods of screening for resistance to microtuble-targeting drugs” (Emory University, priority 2005, published 2007).

Each structure is given as a SMILES string. pIC50: −log10 of the molar value. Entries after “also recorded” stand apart in the source; their conditions may differ.

Assay [1] has as its system 1A9 cells. In words: cells. The format is cell-based, human. Particulars: parental 1A9 cells, 72 hour exposure to the drug. As for the experimental part: (§1) The epothilone A resistant cell line, 1A9-A8, was selected from the human ovarian carcinoma 1A9 cells as described by Giannakakou et al. ((2000) Proc. Natl. Acad. Sci. USA 97:2904-2909). The 1A9-A8^E clone (expressing both wt and mutant alleles) was an intermediate isolate in the selection process of 1A9-A8 (mutant allele only) cells. These cells were cultured in RPMI 1640 medium (Cellgro, Herndon, Va.) supplemented with 10% fetal bovine serum (Invitrogen, Carlsbad, Calif.) and 1% Penicillin-Streptomycin (Cellgro), and grown as monolayers at 37° C. in a 5% CO2 tissue culture incubator. The mouse monoclonal anti-α-tubulin (DM1α) antibody used is from Sigma Chemical Co. (St. Louis, Mo.). Both epothilones A and B were a generous gift from the laboratory of K. C. Nicolaou (The Scripps Research Institute, La Jolla, Calif.). Paclitaxel (Taxol®) was purchased from Sigma Chemical Co. and vincristine from Eli-Lilly (Indianapolis, Ind.).
(§2) Cytotoxicity assays using the protein-staining sulforhodamine B (SRB) method were performed in 96-well plates, as described by Giannakakou et al. ((1997) J. Biol. Chem. 272:17118-17125).

In assay [2] the test system is 1A9-A8^E cells. In words: cells. The format is cell-based, human. The conditions noted are these: for pIC50: 1A9-A8^E cells, 72 hour exposure to the drug; for resistance of early-step isolate 1A9-A8^E to the selecting agent: growth inhibition assays, versus parental 1A9; for Relative Resistance (1A9-A8^E): ratio of IC50 against 1A9-A8^E divided by IC50 against parental 1A9. As to the method:
as §1, §2

The subject of assay [3] is 1A9-A8 cells. In words: cells. In kind it is cell-based, human. Particulars: for pIC50: 1A9-A8 cells, 72 hour exposure to the drug; for Relative Resistance (1A9-A8): ratio of IC50 against 1A9-A8 divided by IC50 against parental 1A9. As to the method:
as §1, §2

Assay [4] relates to 1A9/B10 ovarian cancer cells. Particulars: βArg282Gln mutation, EpoB-selected 1A9/B10 cells; cited from earlier work.
Assay [5] relates to human epidermoid carcinoma cell line. Particulars: Thr274Pro β-tubulin mutation; cited from earlier work.
For assay [6], the system named is 1A9-A8^E cells. The experiment in a line: Cell cycle analysis by flow cytometry (G2/M arrest), 1A9-A8^E cells. The format is cell-based, human. As for the experimental part: (§3) Cell cycle analysis by flow cytometry was performed in the parental 1A9 and the 1A9-Epo^R clones, following overnight treatment with Epo A or Vincristine (VCR) as indicated. […] 10,000 events were recorded for each condition, the histogram is representative of three independent experiments.
(§4) Cells were plated in 6-well plates. The following day, they were treated with various concentrations of epothilone A and vincristine for 18 hours. Following treatment, both adherent and floating cells were harvested and pelleted by centrifugation. Cell pellets were suspended in 1 ml of 0.1 mg/ml propidium iodide containing 0.6% NP40 (ICN Pharmaceuticals, Costa Mesa, Calif.) with 1 mg/ml RNase A (Sigma Chemical Co.), then incubated in the dark at room temperature for 30 minutes. Data acquisition and analysis were performed on a FACScan instrument equipped with CellQuest software (Becton Dickinson Immunocytometry Systems, Franklin Lakes, N.J.). Cell cycle analysis was performed with Flowjo (Treestar). All cell cycle experiments were performed at least three times.
A general note: A flow cytometer gives signals particle by particle.

Assay [7] addresses T1, tubulin (Homo sapiens, UniProt P07437).
T1 construct: endogenous in cells; host or cells: 1A9 human ovarian carcinoma cells
The experiment in a line: Cell-based tubulin polymerization assay, 1A9 cells. As to the method: (§5) Drug-sensitive parental 1A9 (top panel) and the Epo A-resistant clones, 1A9/A8 and 1A9/A8E (lower panel), were treated for 5 hours with or without (0) various concentrations of Epo A as indicated. After cell lysis, the polymerized (P) and the soluble (S) protein fractions were separated by centrifugation, resolved by SDS/PAGE, and immunoblotted with an antibody against alpha-tubulin. The percent of polymerized tubulin (% P) was determined by dividing the densitometric value of polymerized tubulin by the total tubulin content (the sum of P plus S). The results shown are from a representative experiment of four independent observations.
(§6) In order to examine whether the tubulin gene status correlates with the ability of epothilone to induce tubulin polymerization in the three related cell lines (1A9, 1A9-A8, and 1A9-A8^E), cell-based tubulin polymerization assays were performed (FIG. 1). After treating the cells with escalating doses of Epo A, the cells were harvested in a low salt buffer and then centrifuged to separate the pellet fraction containing the polymerized form of tubulin, from the supernatant that contains the soluble form of tubulin. […]
(§7) Quantitation of the degree of in vivo tubulin polymerization in response to Epothilone A was performed as described by Giannakakou et al. ((1997) J. Biol. Chem. 272:17118-17125). […]

Assay [8] has as its system 1A9 cells. The experiment in a line: Cell cycle analysis by flow cytometry (G2/M arrest), 1A9 cells. The format is cell-based, human. As to the method:
as §3, §4

The subject of assay [9] is 1A9-A8^E cells. The experiment in a line: Mitotic index analysis, 1A9-A8^E cells. The format is cell-based, human. The conditions noted are these: 24 hr. As for the experimental part: (§8) Cells were plated on glass coverslips and treated with drugs for 24 hours. Cells were fixed with ice-cold methanol and DNA was stained with Sytox Green (Molecular Probes, Eugene, Oreg.). Epifluorescence microscopy was used to count a minimum of 500 cells per drug treatment and mitotic figures were scored.

The test system of assay [10] is 1A9 cells. In words: Mitotic index analysis, 1A9 cells. The format is cell-based, human. Particulars: 24 hr. As to the method:
as §8

Assay [11] relates to 1A9-A8 cells. The experiment in a line: Mitotic index analysis, 1A9-A8 cells. In kind it is cell-based, human. The conditions noted are these: 24 hr. As to the method:
as §8

Assay [12] concerns tubulin. In words: Cell-based tubulin polymerization assay, 1A9-A8^E cells. The arrangement: species or system human. As for the experimental part:
as §5, §6, §7

Assay [13] deals with 1A9-A8 cells. The experiment in a line: Cell cycle analysis by flow cytometry (G2/M arrest), 1A9-A8 cells. The format is cell-based, human. As to the method: as §3, §4
The target of assay [14] is T2, tubulin (Homo sapiens, UniProt P07437, T274I).
T2 construct: endogenous in cells; host or cells: 1A9-A8 cells (late-step epothilone A-resistant clone of 1A9)
In words: Cell-based tubulin polymerization assay, 1A9-A8 cells. As to the method: as §5, §6, §7

The next assay relates to KB-3-1 epidermal cells. The conditions noted are these: Asp26Glu β-tubulin mutation; cited from earlier work.
Assay [15] deals with epothilone-resistant human ovarian cancer cell lines. Particulars: Thr274Ile and Arg282Gln epothilone-selected ovarian lines; cited from earlier work.
In assay [16] the test system is human breast cancer cells. Particulars: Glu198Gly β-tubulin mutation; cited from earlier work.
In assay [17] the test system is non-small cell lung cancer (NSCLC), Hela, and human leukemia cells. The conditions noted are these: Gln292Glu β-tubulin mutation; cited from earlier work.
Assay [18] concerns human ovarian cancer clones. The conditions noted are these: two Taxol-selected ovarian clones, Phe270Val and Ala364Thr; cited from earlier work.

T2 sequence (P07437 whole entry T274I): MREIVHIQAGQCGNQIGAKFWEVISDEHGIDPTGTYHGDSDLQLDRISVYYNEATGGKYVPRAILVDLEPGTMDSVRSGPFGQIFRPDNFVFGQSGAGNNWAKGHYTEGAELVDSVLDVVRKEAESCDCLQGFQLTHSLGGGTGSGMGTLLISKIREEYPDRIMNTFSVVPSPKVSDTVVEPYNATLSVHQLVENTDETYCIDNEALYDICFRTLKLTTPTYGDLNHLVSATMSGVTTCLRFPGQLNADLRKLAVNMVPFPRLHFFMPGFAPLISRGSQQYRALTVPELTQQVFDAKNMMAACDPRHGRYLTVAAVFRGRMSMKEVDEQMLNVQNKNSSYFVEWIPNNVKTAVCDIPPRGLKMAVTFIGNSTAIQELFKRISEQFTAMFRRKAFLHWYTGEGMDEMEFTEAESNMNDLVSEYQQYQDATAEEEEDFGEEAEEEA
T2 sequence (P68363 whole entry partner): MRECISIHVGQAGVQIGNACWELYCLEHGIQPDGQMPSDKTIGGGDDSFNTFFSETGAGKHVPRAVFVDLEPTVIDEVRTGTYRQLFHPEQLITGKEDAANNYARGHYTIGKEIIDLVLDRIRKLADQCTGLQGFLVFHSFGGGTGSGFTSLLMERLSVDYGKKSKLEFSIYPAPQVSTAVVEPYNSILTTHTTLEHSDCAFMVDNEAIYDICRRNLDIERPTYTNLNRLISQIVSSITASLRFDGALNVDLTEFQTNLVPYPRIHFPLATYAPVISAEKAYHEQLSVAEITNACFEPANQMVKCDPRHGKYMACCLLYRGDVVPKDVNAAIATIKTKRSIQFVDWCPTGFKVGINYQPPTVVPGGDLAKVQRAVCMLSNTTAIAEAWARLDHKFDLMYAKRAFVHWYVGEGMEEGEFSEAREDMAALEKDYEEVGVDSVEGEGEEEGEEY
T1 sequence (P68363 whole entry): as the sequence (P68363 whole entry partner) above
T1 sequence (P07437 whole entry): as the sequence (P07437 whole entry T274I) above, with I274T counted along it

Regarding `C/C(=C\c1csc(C)n1)[C@@H]1C[C@@H]2O[C@@H]2CCC[C@H](C)[C@H](O)[C@@H](C)C(=O)C(C)(C)[C@@H](O)CC(=O)O1` [Epothilone A], the pIC50 (as a rule, −log10 of the IC50, conventionally taken in molar units) in the assay on 1A9 cells [1] is 8.49; in the assay with 1A9-A8^E cells [2], 7.49; with 1A9-A8 cells [3] it was 6.90. Besides, the results for the “resistance of early-step isolate 1A9-A8^E to the selecting agent” value with 1A9-A8^E cells [2] and in the assay on 1A9-A8^E cells [2] (listed as Epo A) were 10 fold and “ten-fold”, respectively. In addition, the “Relative Resistance (1A9-A8^E)” value with 1A9-A8^E cells [2] worked out at 10. The “resistance of late-step 1A9-A8 clone to the selecting agent” value in the assay with 1A9-A8 cells [3] (growth inhibition assays, versus parental 1A9) was determined as 40 fold. In addition, in the assay with 1A9-A8 cells [3], the “Relative Resistance (1A9-A8)” value is 39. Besides, the “fold resistance / cross-resistance” value in assay [4] is 57-74 fold; in assay [5], 45 fold. Also, the G2/M arrest entry in the assay on 1A9-A8^E cells [6] (Epo A overnight treatment) is given as “partially arrested in G2/M; also recorded: modest G2/M arrest”; in the assay on 1A9 cells [8] (Epo A overnight treatment), “complete G2/M arrest”; in the assay on 1A9-A8 cells [13] (Epo A overnight treatment, even at the highest concentration), “failed to arrest in mitosis; also recorded: no change was observed in the cell cycle profile”. Moreover, the “effect on tubulin polymerization” value on tubulin [7] (1A9 cells, escalating doses) is “dose-dependent increase in tubulin polymerization”; in the assay on tubulin [12] (1A9-A8^E cells, escalating doses) it was “intermediate degree of tubulin polymerization”; on tubulin [14] (1A9-A8 cells, up to highest drug concentration (1500 nM)), “almost no effect on tubulin polymerization”. Moreover, the “percent of polymerized tubulin (% P)” value at tubulin [7] (parental 1A9 cells, 150 nM) is on record as 90%; in the assay with tubulin [12] (early-step 1A9-A8^E cells, 150 nM) it was 70%; on tubulin [14] (late-step 1A9-A8 cells, 150 nM), 3%. In addition, the “Mitotic Index (%)” value with 1A9-A8^E cells [9] (10 nM) was 39%; in the assay with 1A9-A8^E cells [9] (100 nM), 47%; in the assay on 1A9 cells [10] (10 nM) it was 82%; in the assay on 1A9 cells [10] (100 nM) it was 96%; in the assay with 1A9-A8 cells [11] (10 nM), 2.7%; with 1A9-A8 cells [11] (100 nM), 6.1%.
For the compound `C/C(=C\c1csc(C)n1)[C@@H]1C[C@@H]2O[C@]2(C)CCC[C@H](C)[C@H](O)[C@@H](C)C(=O)C(C)(C)[C@@H](O)CC(=O)O1` [Epothilone B], the pIC50 in the assay on 1A9 cells [1] is 9.05; in the assay with 1A9-A8^E cells [2] it was 8.10; in the assay on 1A9-A8 cells [3], 7.54. For the same compound, the “Relative Resistance (1A9-A8^E)” value with 1A9-A8^E cells [2] was found to be 9. Besides, in the assay on 1A9-A8 cells [3], the “Relative Resistance (1A9-A8)” value came to 32. Also, the “fold resistance / cross-resistance” value is recorded as 24-53 fold in [4], 8 fold in assay [5] and “minimal cross-resistance” in the assay on KB-3-1 epidermal cells.
In the case of `CC(=O)O[C@H]1C(=O)[C@@]2(C)[C@H]([C@H](OC(=O)c3ccccc3)[C@]3(O)C[C@H](OC(=O)[C@H](O)[C@@H](NC(=O)c4ccccc4)c4ccccc4)C(C)=C1C3(C)C)[C@]1(OC(C)=O)CO[C@@H]1C[C@@H]2O` [Paclitaxel], the negative logarithm of the IC50 (pIC50) with 1A9 cells [1] (Homo sapiens) is 8.82; with 1A9-A8^E cells [2] (Homo sapiens), 8.05; with 1A9-A8 cells [3] (Homo sapiens) it was 7.82. For the same compound, in the assay with 1A9-A8^E cells [2], the “Relative Resistance (1A9-A8^E)” value is recorded as 6. Besides, the “Relative Resistance (1A9-A8)” value in the assay on 1A9-A8 cells [3] worked out at 10. Also, in assay [15], the cross-resistance is recorded as 7-10 fold. For the same compound, the “fold resistance / cross resistance” value in assay [16] is recorded as 17 fold. For the same compound, the “fold resistance / cross-resistance” value in assay [17] is recorded as 22 fold; in assay [5], 96 fold; with KB-3-1 epidermal cells it was 18 fold. For the same compound, the “fold resistance (IC50 resistant line over IC50 parental line)” value in [18] is given as 30 fold.
In the case of `CC(=O)O[C@@]12CO[C@@H]1C[C@H](O)[C@@]1(C)C(=O)[C@H](O)C3=C(C)[C@@H](OC(=O)[C@H](O)[C@@H](NC(=O)OC(C)(C)C)c4ccccc4)C[C@@](O)([C@@H](OC(=O)c4ccccc4)[C@H]21)C3(C)C` [Taxotere], in assay [16], the “fold resistance / cross resistance” value is “some cross resistance”. In addition, the “fold resistance / cross-resistance” value in assay [17] is given as 13 fold; in the assay with KB-3-1 epidermal cells, 10 fold.
`CC[C@]1(O)C[C@H]2CN(CCc3c([nH]c4ccccc34)[C@@](C(=O)OC)(c3cc4c(cc3OC)N(C=O)[C@H]3[C@@](O)(C(=O)OC)[C@H](OC(C)=O)[C@]5(CC)C=CCN6CC[C@]43[C@@H]65)C2)C1` [Vincristine]: the G2/M arrest result in the assay with 1A9-A8^E cells [6] (10 nM) is reported as “arrested in G2/M”; with 1A9-A8^E cells [6] (10 nM, listed as vincristine) it was “G2/M arrest”; in the assay with 1A9 cells [8] (10 nM), “G2/M arrest”; in the assay with 1A9-A8 cells [13] (10 nM), “arrested in G2/M”; with 1A9-A8 cells [13] (10 nM, listed as vincristine) it was “G2/M arrest”.
